# Ends that are not written are not given here.
# Tests used:
# [1] = dog, in vivo, iv
# Procedure: All experimental procedures were performed in accordance with regulations and ethical guidelines from Canadian Council for the Care of Laboratory Animals, and received approval by the animal ethics and research committee of the Montreal Heart Institute. Mongrel dogs weighing between 20-30 kg and presenting negative Dirofilaria imitis blood test results were anesthetized by an initial intravenous dose of pentobarbital sodium (50 mg/kg). Animals were intubated and mechanically ventilated using room air. Cutaneous electrocardiographic leads were installed, and 18F cathlon with three-way was installed on both saphenous vein for 0.9% sodium chloride perfusion, radiolabelled injection and blood collection. A right arterial femoral catheter was also inserted using the Seldinger technique for continuous blood pressure monitoring.
# Purified and buffered ^99mTc-DTPA-hAM1-52 samples were injected in right saphenous vein (n=6). A series of 2 mL blood samples were collected 1 min after the initial AM injection for a 10-min period, then repeated every 5 min for the following 50-min period. […]
# Plasma kinetics of ^99mTc-DTPA-hAM1-52 was fitted using a two-phase exponential decay equation with GraphPad Prism version 4.0 software. Time effects on each organ biodistribution were analyzed by two-way repeated measures ANOVA followed, when a significant interaction was found, by Bonferroni/Dunn t-test. […]
# [2] = Plasma kinetics of 125I-rAM(1-50) after single intravenous injection in rats; format: in vivo, rat; details: drug given 5 min before the 125I-rAM(1-50) bolus
# Procedure: (§1) All experimental procedures were performed in accordance with the regulations and ethical guidelines from Canadian Council for the Care of Laboratory Animals, and received approval by the Animal Ethics and Research Committee of the Montreal Heart Institute. Male Sprague-Dawley rats (Charles River), weighing between 400-450 g, were anaesthetized by an initial intramuscular dose of xylazine (10 mg/kg of body weight) and ketamine (50 mg/kg of body weight), followed by an intra-peritoneal injection of heparin (2000 units; Sigma). Catheters were inserted into the right carotid artery and jugular vein. Heart rate and systemic blood pressure were monitored continuously. […] Venous and arterial blood samples (3 ml) were collected and centrifuged (1875 g, 15 min, 4° C.) and the plasma saved for subsequent measurement of irAM (immunoreactive AM). A similar amount of saline was infused into the animals to prevent hypovolaemia.
# The animals were then killed and the lungs, liver, kidneys (en bloc with the adrenal glands) and heart were removed and gravity drained. […] Results are expressed as a percentage of total radioactivity injected. […]
# Multiple group comparisons were performed by factorial ANOVA, followed, when a significant interaction was found, by the Bonferroni/Dunn t test. […] In the canine experiments, the effect of drugs on AM extraction was analyzed by two-tailed paired Student's t tests. […]
# [3] = In vivo single-pass pulmonary clearance of 125I-rAM(1-50) in dogs, single bolus indicator-dilution technique; design: species or system dog; details: for mean single-pass pulmonary extraction of 125I-rAM(1-50) after administration of the drug: dogs, drug as intravenous bolus of 100 nmol 5 min before second experiment, mean ±S.E.M.
# Procedure: Dogs were anaesthetized and prepared as described in detail in reference, which is hereby incorporated by reference. A catheter was inserted into the carotid artery and positioned just above the aortic valve. This catheter was connected to a peristaltic pump for automated blood withdrawal. Another catheter was placed into the jugular vein and positioned in the right ventricular outflow tract to allow bolus injection of the study tracers. A bolus was prepared by adding 3.3 μCi of 125I-rAM(1-50) (2.9 pmol) to 3 ml of Evans-Blue-dye labelled albumin and 0.9% saline to give a final volume of 6 ml. The mixture was separated into three equal parts for the two successive experiments in each animal and to realize dilution-curve standards. A baseline single-bolus indicator-dilution experiment was performed.
# The collected samples were processed and indicator-dilution curves constructed and analyzed as described in previously cited reference 13. Cardiac output and mean tracer AM extraction during the pulmonary transit time were computed from the curves. Mean tracer extraction corresponded to the difference between the areas of the outflow curve of the vascular reference (albumin) and that of the extracted tracer (AM). Recirculation of the tracers apparent in the terminal portion of the curves was removed by linear extrapolation of the semi-logarithmic down slopes.
# (§2) Multiple group comparisons were performed by factorial ANOVA, followed, when a significant interaction was found, by the Bonferroni/Dunn t test. Plasma kinetics of 125I-rAM(1-50) was fitted using a two-phase exponential decay equation with GraphPad Prism (version 4.0) software. […] Comparison between venous and arterial rAM(1-50) levels in plasma was performed with a two-tailed paired Student's t test. In the canine experiments, the effect of drugs on AM extraction was analyzed by two-tailed paired Student's t tests. A P value of <0.05 was considered significant. All results are reported as means ±S.E.M.
# [4] = Biodistribution and pulmonary retention of 125I-rAM(1-50) in rats after intravenous or intra-arterial injection; format: in vivo, rat; details: drug given 5 min before tracer
# Procedure: as §1
# The animals were then killed and the lungs, liver, kidneys (en bloc with the adrenal glands) and heart were removed and gravity drained. […] Results are expressed as a percentage of total radioactivity injected.
# The drugs were given by either intraarterial (n=10 in each group) or intravenous (n=10 in each group) injection 5 min before the ^125I-rAM(1-50) bolus. Plasma samples and tissues were treated as described above.
# as §2
molecule,measurement,setting,value
"CC[C@H](C)[C@H](NC(=O)[C@H](CCC(N)=O)NC(=O)[C@H](Cc1c[nH]cn1)NC(=O)[C@H](C)NC(=O)[C@H](CC(C)C)NC(=O)[C@H](CCCCN)NC(=O)[C@H](CCC(N)=O)NC(=O)[C@@H](NC(=O)[C@@H](NC(=O)[C@@H]1CSSC[C@H](NC(=O)CNC(=O)[C@H](Cc2ccccc2)NC(=O)[C@H](CO)NC(=O)[C@H](CCCNC(=N)N)NC(=O)[C@H](CC(C)C)NC(=O)CNC(=O)[C@H](CCC(N)=O)NC(=O)[C@H](Cc2ccccc2)NC(=O)[C@H](CC(N)=O)NC(=O)[C@H](CC(N)=O)NC(=O)[C@H](CCSC)NC(=O)[C@H](CO)NC(=O)[C@H](CCC(N)=O)NC(=O)[C@H](CCCNC(=N)N)NC(=O)[C@H](Cc2ccc(O)cc2)NC(=O)CN(CCN(CCN(CC(=O)O)CC(=O)O)CC(=O)O)CC(=O)O)C(=O)N[C@@H](CCCNC(=N)N)C(=O)N[C@@H](Cc2ccccc2)C(=O)NCC(=O)N[C@@H]([C@@H](C)O)C(=O)N1)[C@@H](C)O)C(C)C)C(=O)N[C@@H](Cc1ccc(O)cc1)C(=O)N[C@@H](CCC(N)=O)C(=O)N[C@@H](Cc1ccccc1)C(=O)N[C@H](C(=O)N[C@@H](CC(=O)O)C(=O)N[C@@H](CCCCN)C(=O)N[C@@H](CC(=O)O)C(=O)N[C@@H](CCCCN)C(=O)N[C@@H](CC(=O)O)C(=O)N[C@@H](CC(N)=O)C(=O)N[C@H](C(=O)N[C@@H](C)C(=O)N1CCC[C@H]1C(=O)N[C@@H](CCCNC(=N)N)C(=O)N[C@@H](CO)C(=O)N[C@@H](CCCCN)C(=O)N[C@H](C(=O)N[C@@H](CO)C(=O)N1CCC[C@H]1C(=O)N[C@@H](CCC(N)=O)C(=O)NCC(=O)N[C@@H](Cc1ccc(O)cc1)C(N)=O)[C@@H](C)CC)C(C)C)[C@@H](C)O [99mTc-DTPA-hAM1-52, metal not drawn]",ratio of rate constant for exchange between the central and peripheral compartments (k1-2/k2-1),[1],24.09
hAM(22-52): C-terminal AM fragment that blocks the specific AM receptor (Bachem),effect of administration prior to radiolabelled rAM(1-50) on its plasma kinetics,[2],did not modify plasma kinetics
same,mean single-pass pulmonary extraction of 125I-rAM(1-50) after administration of the drug,[3],31.4±3.3%
same,effect of prior administration on 125I-rAM(1-50) activity retained in kidneys,[4],elevated the retained activity
same,effect of prior administration on biodistribution of 125I-rAM(1-50),[4],did not significantly modify this distribution
same,effect of prior administration on pulmonary first-pass retention of 125I-rAM(1-50) (intra-arterial compared with intravenous),[4],not affected
"rAM(1-50): unlabelled rat adrenomedullin, amino acids 1-50 (American Peptide) (YRQSMNQGSRSTGCRFGTCTMQKLAHQIYQFTDKDKDGMAPRNKISPQGY; ends and bridges not checked; cysteine pairing not given here)",effect of administration prior to radiolabelled rAM(1-50) on its plasma kinetics,[2],did not modify plasma kinetics
same,mean single-pass pulmonary extraction of 125I-rAM(1-50) after administration of the drug,[3],21.9±2.4%
same,"mean extraction of 125I-rAM(1-50) after injection of the drug, typical experiment","[3]; same dog, second experiment (FIG. 4B)",12%
same,effect of prior administration on 125I-rAM(1-50) lung activity,[4],important reduction in lung activity
same,"effect of prior administration on amount of 125I-rAM(1-50) retained by the liver, kidneys and heart",[4],significantly increased
same,effect of prior administration on pulmonary first-pass retention of 125I-rAM(1-50) (intra-arterial compared with intravenous),[4],did not decrease further the already lowered pulmonary retention after intra-arterial compared with intravenous injections

# Reference: patent US8703098B2, “Labelled adrenomedullin derivatives and their use for imaging and therapy” (Institut de Cardiologie de Montreal, priority 2004, dated 2014)
